Assay results as given in patent US20230399341A1, “7-PHENYL SUBSTITUTED 2-AMINOQUINAZOLINE INHIBITORS OF HPK1” (MERCK SHARP & DOHME LLC, priority 2020, published 2023).

Biological target: T1, Human HPK1, catalytic domain (Homo sapiens, UniProt Q92918)
T1 sequence (Q92918 1-346): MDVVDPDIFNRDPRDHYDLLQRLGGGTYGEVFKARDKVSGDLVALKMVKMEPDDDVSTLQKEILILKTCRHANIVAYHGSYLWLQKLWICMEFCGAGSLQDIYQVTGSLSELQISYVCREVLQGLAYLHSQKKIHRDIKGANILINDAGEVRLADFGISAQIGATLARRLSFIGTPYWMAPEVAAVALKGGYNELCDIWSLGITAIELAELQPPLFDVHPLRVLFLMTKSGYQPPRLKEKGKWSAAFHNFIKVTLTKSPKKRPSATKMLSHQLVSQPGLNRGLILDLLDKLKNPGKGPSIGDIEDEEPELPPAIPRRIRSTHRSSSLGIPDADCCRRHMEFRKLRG
Test: HPK1-SLP76 TR-FRET Assay
Assay type: biochemical
Conditions: 75 pM HPK1, ATP 10 uM, SLP76 10 nM, 30 min pre-incubation, 60 min reaction

IC50 [nM]	SMILES
68.5	COc1cc2c(cc1Nc1ncc3ccc(Nc4cccc(N5CCN(C)C5=O)c4)cc3n1)CN(C)CC2 [Compound 3-43, 1-[3-({2-[(6-methoxy-2-methyl-1,2,3,4-tetrahydroisoquinolin-7-yl)amino]quinazolin-7-yl}-amino)phenyl]-3-methylimidaz-olidin-2-one]
13	COc1cc2c(cc1Nc1ncc3ccc(Nc4ccc(C)c(S(N)(=O)=O)c4)cc3n1)CN(C)CC2 [Compound 3-44, 5-({2-[(6-methoxy-2-methyl-1,2,3,4-tetrahydroisoquinolin-7-yl)amino]quinazolin-7-yl}-amino)-2-methylbenzene-1-sulfonamide]
292	COc1cc2c(cc1Nc1ncc3ccc(NC[C@@H]4CCC(=O)N4)cc3n1)CN(C)CC2 [Compound 3-45, (5S)-5-[({2-[(6-methoxy-2-meth-yl-1,2,3,4-tetrahydroisoquinolin-7-yl)amino]quinazolin-7-yl}-amino)methyl]pyrrolidin-2-one]
118	COc1cc2c(cc1Nc1ncc3ccc(N[C@H]4CC[C@@H](O)CC4)cc3n1)CN(C)CC2 [Compound 3-46, (1s,4s)-4-((2-((6-methoxy-2-methyl-1,2,3,4-tetrahydroiso-quinolin-7-yl)amino)quinazolin-7-yl)amino)cyclohexan-1-ol]
170	COc1cc2c(cc1Nc1ncc3ccc(N[C@H]4CCCOCC4)cc3n1)CN(C)CC2 [Compound 3-47, (S)-N2-(6-methoxy-2-methyl-1,2,3,4-tetrahydroisoquinolin-7-yl)-N7-(oxepan-4-yl)quinaz-oline-2,7-diamine]
96.7	COc1cc2c(cc1Nc1ncc3ccc(N[C@H]4CCN(C)C4=O)cc3n1)CN(C)CC2 [Compound 3-49, (3S)-3-({2-[(6-methoxy-2-meth-yl-1,2,3,4-tetrahydroisoquinolin-7-yl)amino]quinazolin-7-yl}-amino)-1-methylpyrrolidin-2-one]
771	COc1cc2c(cc1Nc1ncc3ccc(N4CCC[C@H](N5CCOC5=O)C4)cc3n1)CN(C)CC2 [Compound 3-50, 3-[(3S)-1-{2-[(6-methoxy-2-methyl-1,2,3,4-tetrahydroiso-quinolin-7-yl)amino]quinazolin-7-yl}piperidin-3-yl]-1,3-oxazol-idin-2-one]
234	COc1cc2c(cc1Nc1ncc3ccc(NC4CC(OC)C4)cc3n1)CN(C)CC2 (stereo not shown) [Compound 3-51, N~7~-(3-methoxycyclobutyl)-N~2~-(6-methoxy-2-methyl-1,2,3,4-tetrahydroisoquinolin-7-yl)quinazoline-2,7-diamine]
97.9	COc1cc2c(cc1Nc1ncc3ccc(NCc4noc(C)n4)cc3n1)CN(C)CC2 [Compound 3-52, N~2~-(6-methoxy-2-methyl-1,2,3,4-tetrahydroisoquinolin-7-yl)-N~7~-[(5-methyl-1,2,4-oxadiazol-3-yl)methyl]quinaz-oline-2,7-diamine]
669	COc1cc2c(cc1Nc1ncc3ccc(N4CC(C(N)=O)C4)cc3n1)CN(C)CC2 [Compound 3-53, 1-{2-[(6-methoxy-2-methyl-1,2,3,4-tetrahydroisoquinolin-7-yl)amino]quinazolin-7-yl}-azetidine-3-carboxamide]
240	COc1cc2c(cc1Nc1ncc3ccc(NC4(C)COC4)cc3n1)CN(C)CC2 [Compound 3-55, N~2~-(6-methoxy-2-methyl-1,2,3,4-tetrahydroisoquinolin-7-yl)-N~7~-(3-methyloxetan-3-yl)quinazoline-2,7-diamine]
799	COc1cc2c(cc1Nc1ncc3ccc(N4CCn5c(C)nnc5C4)cc3n1)CN(C)CC2 [Compound 3-57, N-(6-methoxy-2-methyl-1,2,3,4-tetrahydroisoquinolin-7-yl)-7-(3-methyl-5,6-dihydro[1,2,4]-triazolo[4,3-a]pyrazin-7(8H)-yl)quinazolin-2-amine]
180	COc1cc2c(cc1Nc1ncc3ccc(N[C@H]4CCC[C@@H]4O)cc3n1)CN(C)CC2 [Compound 3-58, (1S,2S)-2-({2-[(6-methoxy-2-methyl-1,2,3,4-tetrahydroiso-quinolin-7-yl)amino]quinazolin-7-yl}amino)cyclopentan-1-ol]
824	COc1cc2c(cc1Nc1ncc3ccc(NC4(C(=O)N(C)C)CCC4)cc3n1)CN(C)CC2 [Compound 3-61, 1-({2-[(6-methoxy-2-methyl-1,2,3,4-tetrahydroisoquinolin-7-yl)amino]quinazolin-7-yl}-amino)-N,N-dimethylcyclo-butane-1-carboxamide]
111	COc1cc2c(cc1Nc1ncc3ccc(NCC4(C)COC4)cc3n1)CN(C)CC2 [Compound 3-62, N~2~-(6-methoxy-2-methyl-1,2,3,4-tetrahydroisoquinolin-7-yl)-N~7-[(3-methyloxetan-3-yl)-methyl]quinazoline-2,7-diamine]
38.3	COc1cc2c(cc1Nc1ncc3ccc(NCc4cnsn4)cc3n1)CN(C)CC2 [Compound 3-63, N~2~-(6-methoxy-2-methyl-1,2,3,4-tetrahydroisoquinolin-7-yl)-N~7-[(1,2,5-thiadiazol-3-yl)-methyl]quinazoline-2,7-diamine]

IC50 [nM]	SMILES
115	COc1cc2c(cc1Nc1ncc3ccc(NCC(=O)N4CCOCC4)cc3n1)CN(C)CC2 [Compound 3-64, 2-({2-[(6-methoxy-2-methyl-1,2,3,4-tetrahydroisoquinolin-7-yl)amino]quinazolin-7-yl}-amino)-1-(morpholin-4-yl)ethan-1-one]
136	COc1cc2c(cc1Nc1ncc3ccc(NCC(=O)N4CCCC4)cc3n1)CN(C)CC2 [Compound 3-65, 2-({2-[(6-methoxy-2-methyl-1,2,3,4-tetrahydroisoquinolin-7-yl)amino]quinazolin-7-yl}-amino)-1-(pyrrolidin-1-yl)ethan-1-one]
294	COc1cc2c(cc1Nc1ncc3ccc(NC4(C(=O)N(C)C)CC4)cc3n1)CN(C)CC2 [Compound 3-66, 1-({2-[(6-methoxy-2-methyl-1,2,3,4-tetrahydroisoquinolin-7-yl)amino]quinazolin-7-yl}-amino)-N,N-dimethylcyclopro-pane-1-carboxamide]
108	COc1cc2c(cc1Nc1ncc3ccc(N[C@@H]4COC[C@@H]4F)cc3n1)CN(C)CC2 [Compound 3-67, N~7~-[(3R,4R)-4-fluorooxolan-3-yl]-N~2~-(6-methoxy-2-meth-yl-1,2,3,4-tetrahydroisoquinolin-7-yl)quinazoline-2,7-diamine]
520	COCC1CN(c2ccc3cnc(Nc4cc5c(cc4OC)CCN(C)C5)nc3c2)C1 [Compound 3-68, 7-[3-(methoxymethyl)azetidin-1-yl]-N-(6-methoxy-2-methyl-1,2,3,4-tetrahydroisoquinolin-7-yl)quinazolin-2-amine]
392	CNC(=O)CNc1ccc2cnc(Nc3cc4c(cc3OC)CCN(C)C4)nc2c1 [Compound 3-70, N~2~-{2-[(6-methoxy-2-methyl-1,2,3,4-tetrahydroisoquinolin-7-yl)amino]quinazolin-7-yl}-N-methylglycinamide]
91.7	COc1cc2c(cc1Nc1ncc3ccc(NCC(=O)N(C)C)cc3n1)CN(C)CC2 [Compound 3-71, N~2~-{2-[(6-methoxy-2-meth-yl-1,2,3,4-tetrahydroisoquinolin-7-yl)amino]quinazolin-7-yl}-N,N-dimethylglycinamide]
290	COc1cc2c(cc1Nc1ncc3ccc(NCc4cc(C)n(C)n4)cc3n1)CN(C)CC2 [Compound 3-72, N~7~-[(1,5-dimethyl-1H-pyrazol-3-yl)methyl]-N~2~-(6-methoxy-2-methyl-1,2,3,4-tetra-hydroisoquinolin-7-yl)quinaz-oline-2,7-diamine]
719	COc1cc2c(cc1Nc1ncc3ccc(N4CCN(C5CC5)C(=O)C4)cc3n1)CN(C)CC2 [Compound 3-73, 1-cyclopropyl-4-{2-[(6-methoxy-2-methyl-1,2,3,4-tetrahydroiso-quinolin-7-yl)amino]quinazolin-7-yl}piperazin-2-one]
138	COc1cc2c(cc1Nc1ncc3ccc(NC4C5COCC54)cc3n1)CN(C)CC2 (stereo not shown) [Compound 3-74, N~2~-(6-methoxy-2-methyl-1,2,3,4-tetrahydroisoquinolin-7-yl)-N~7~-(3-oxabicyclo[3.1.0]-hexan-6-yl)quinazoline-2,7-diamine]
0.101	C[C@H]1COC(=O)N1c1cc(N)c2cnc(Nc3ccc(S(C)(=O)=O)cc3)nc2c1 [Compound 3-76, (S)-3-(5-amino-2-((4-(methyl-sulfonyl)phenyl)amino)quinaz-olin-7-yl)-4-methyloxazolidin-2-one]
24.3	C[C@@H]1COC(=O)N1c1cc(N)c2cnc(Nc3ccc(S(C)(=O)=O)cc3)nc2c1 [Compound 3-77, (R)-3-(5-amino-2-((4-(methyl-sulfonyl)phenyl)amino)quinaz-olin-7-yl)-4-methyloxazolidin-2-one]
0.169	C[C@H]1COC(=O)N1c1cc(N)c2cnc(Nc3ccc(CS(C)(=O)=O)cc3)nc2c1 [Compound 3-78, (S)-3-(5-amino-2-((4-((methyl-sulfonyl)methyl)phenyl)amino)-quinazolin-7-yl)-4-methyloxa-zolidin-2-one]
0.255	CNC(=O)c1ccc(Nc2ncc3c(N)cc(N4C(=O)OC[C@@H]4C)cc3n2)cc1 [Compound 3-79]
2.81	COc1cc2c(cc1Nc1ncc3c(N)c(F)c(Nc4cc(CO)ccn4)cc3n1)CN(C)CC2 [Compound 3-80, [2-({5-amino-6-fluoro-2-[(6-methoxy-2-methyl-1,2,3,4-tetra-hydroisoquinolin-7-yl)amino]-quinazolin-7-yl}amino)pyridin-4-yl]methanol]
